# Laboratory results reported in US8435984B2, “Tertiary amine substituted peptides useful as inhibitors of HCV replication” (Achillion Pharmaceuticals, Inc., priority 2007, dated 2013).
# Tested on: HCV replicon
# Assay: HCV replicon replication assay (NPT ELISA) in Huh-7 replicon-containing cells
# Assay type: cell-based, Hepatitis C virus
# Settings: Hepatitis C virus, 72 h; inhibition of HCV replicon replication, Huh-7 HCV replicon-containing cells, three days
# Description: Compounds claimed herein are tested for the ability to inhibit viral replication of the Hepatitis C replicon in cultured cells in which the HCV replicon construct has been incorporated. The HCV replicon system was described by Bartenschlager, et. al (Science, 285, pp. 110-113 (1999)). The replicon system is predictive of in vivo anti-HCV activity; compounds that are active in humans uniformly evidence activity in the replicon assay.
# In this assay HCV replicon containing cells are treated with different concentrations of the test compound to ascertain the ability of the test compound to suppress replication of the HCV replicon. As a positive control, HCV replicon-containing cells are treated with different concentrations of interferon alpha, a known inhibitor of HCV replication. The replicon assay system includes Neomycin Phosphotransferase (NPT) as a component of the replicon itself in order to detect the transcription of replicon gene products in the host cell. Cells in which the HCV replicon is actively replicating have high levels of NPT; the level of NPT is proportional to HCV replication. […] The NPT level of each sample is measured using a captured ELISA.
# The HCV replicon contains, 5′-3′, the HCV-IRES, the neomycin phosphotransferase (neo) gene, the IRES of encephalomyocarditis virus, which directs translation of HCV sequences NS3 to NS5B, and the 3′-NTR. The sequence of the HCV replicon has been deposited in GenBank (Accession no. AJ242652).
# The replicon is transfected into Huh-7 cells using standard methods such as electroporation.
# HCV replicon-containing cells are rinsed with once PBS once; 2 mls of trypsin are then added. Cells are incubated at 37° C. in a 5% CO2 incubator for 3-5 minutes. 10 mls of complete medium is added to stop the reaction. Cells are blown gently, put into a 15 ml tube, and spun at 1200 rpm for four minutes. The trypsin/medium solution is removed and 5 mls of medium (500 ml DMEM (high glucose)) from BRL catalog #12430-054; 50 mls 10% FBS, 5% Geneticin G418 (50 mg/ml, BRL catalog #10131-035), 5 ml MEM non-essential amino acids (100×BRL #11140-050) and 5 ml pen-strep (BRL #15140-148) is added. The cells and media are mixed carefully
# Cells are plated with screening medium (500 ml DMEM (BRL #21063-029), 50 ml FBS (BRL #10082-147) and 5 ml MEM non-essential amino acid (BRL #11140-050) at 6000-7500 cells/100 μl/well of 96 well plate (6-7.5×10^5 cells/10 ml/plate). Plates are placed into 37° C. 5% CO2 incubator overnight. 6D. Assay
# The following morning, drugs (test compounds or interferon alpha) are diluted in 96 well U bottom plates with media or DMSO/media, depending on the final concentration chosen for screening. Generally for 6 concentrations of each test compounds ranging from 10 micromolar to 0.03 micromolar are applied. 100 μl of the test compound dilution is placed in wells of the 96 well plate containing the HCV replicon cells. Media without drug is added to some wells as a negative controls. DMSO is known to affect cell growth. Therefore, if drugs diluted in DMSO are used, all wells, including negative control (media only) and positive control (interferon alpha) wells, must contain the same concentration of DMSO, for single dose screening. The plates are incubated at 37° C. in a humidified 5% CO2 environment for three days.
# On day four, the NTPII assay is quantitated. The medium is poured from the plates and the plates are washed once in 200 μl of PBS. The PBS is then decanted and the plates tapped in a paper towel to remove any remaining PBS. Cells are fixed in situ with 100 id/well of pre-cooled (−20° C.) methanol:acetone (1:1) and the plates are placed at −20° C. for 30 minutes.
# The fixing solution is poured from the plates and the plates allowed to air-dry completely (approximately one hour). The appearance of the dried cell layer is recorded and the density of the cells in the toxic wells is scored with the naked eye. […]
row,Compound,EC50 [µM]
1,"CCCC(NC(=O)C1C2CCCC2CN1C(=O)C(C)N1CCCCC1)C(=O)C(=O)NC1CC1 (centres unmarked) [Compound 35, N-(1-(cyclopropylamino)-1,2-dioxohexan-3-yl)-2-(2-(piperidin-1-yl)propanoyl)octahydrocyclopenta [c]pyrrole-1-carboxamide]",< 100
2,"CCCC(NC(=O)C1C2CCCC2CN1C(=O)C(c1ccccc1)N1CCCCC1)C(=O)C(=O)NC1CC1 (centres unmarked) [Compound 36, N-(1-(cyclopropylamino)-1,2-dioxohexan-3-yl)-2-(2-phenyl-2-(piperidin-1-yl)acetyl)octahydrocyclopenta[c] pyrrole-1-carboxamide]",< 100
3,"CCCC(NC(=O)C1C2CCCC2CN1C(=O)C(C)N1CCCCCC1)C(=O)C(=O)NC1CC1 (centres unmarked) [Compound 37, 2-(2-(azepan-1-yl)propanoyl)-N-(1-(cyclopropylamino)-1,2-dioxohexan-3-yl)octahydrocyclopenta[c]pyrrole-1-carboxamide]",< 100
4,"CCCC(NC(=O)C1C2CCCC2CN1C(=O)[C@@H](NC(=O)OC(C)(C)C)C(C)(C)C)C(=O)C(=O)NC1CC1 (stereo partly drawn) [Compound 39, tert-butyl(2S)-1-(1-(1-(cyclopropylamino)-1,2-dioxohexan-3-ylcarbamoyl)hexahydrocyclopenta[c]pyrrol-2(1H)-yl)-3,3-dimethyl-1-oxobutan-2-ylcarbamate]",< 100
5,"CCCC(NC(=O)C1C2CCCC2CN1C(=O)C(C)N1CCCC1)C(=O)C(=O)NC1CC1 (centres unmarked) [Compound 40, N-(1-(cyclopropylamino)-1,2-dioxohexan-3-yl)-2-(2-(pyrrolidin-1-yl)propanoyl)octahydrocyclopenta [c]pyrrole-1-carboxamide]",< 100
6,"CCCC(NC(=O)C1C2CCCC2CN1C(=O)[C@@H](C)N1CCCCC1)C(=O)C(=O)NC1CC1 (stereo partly drawn) [Compound 42, N-(1-(cyclopropylamino)-1,2-dioxohexan-3-yl)-2-((R)-2-(piperidin-1-yl)propanoyl)octahydrocyclopenta [c]pyrrole-1-carboxamide]",> 100
7,"CCCC(NC(=O)C1C2CCCC2CN1C(=O)[C@@H](C)N1CCCC1)C(=O)C(=O)NC1CC1 (stereo partly drawn) [Compound 43, N-(1-(cyclopropylamino)-1,2-dioxohexan-3-yl)-2-((R)-2-(pyrrolidin-1-yl)propanoyl)octahydrocyclopenta [c]pyrrole-1-carboxamide]",> 100
8,"CCCC(NC(=O)[C@@H]1C[C@@H](OC(=O)N2CCc3ccccc3C2)CN1C(=O)C(C)N1CCCCC1)C(=O)C(=O)NC1CC1 (stereo partly drawn) [Compound 44, (3R,5S)-5-(1-(cyclopropylamino)-1,2-dioxohexan-3-ylcarbamoyl)-1-(2-(piperidin-1-yl)propanoyl)pyrrolidin-3-yl 3,4-dihydroisoquinoline-2(1H)-carboxylate]",< 100
9,"CCCC(NC(=O)C1C[C@@H](OC(=O)N2CCc3ccccc3C2)CN1C(=O)C(C)N1CCCC1)C(=O)C(=O)NC1CC1 (stereo partly drawn) [Compound 45, (3R,5S)-S-(1-(cyclopropylamino)-1,2-dioxohexan-3-ylcarbamoyl)-1-(2-(pyrrolidin-l-yl)propanoyl)pyrrolidin-3-yl 3,4-dihydroisoquinoline-2(1H)-carboxylate]",> 100
10,"CCCC(NC(=O)C1C2CCCC2CN1C(=O)[C@H](C)N1CCCCC1)C(=O)C(=O)NC1CC1 (stereo partly drawn) [Compound 46, N-(1-(cyclopropylamino)-1,2-dioxohexan-3-yl)-2-((S)-2-(piperidin-1-yl)propanoyl)octahydrocyclopenta [c]pyrrole-1-carboxamide]",< 100
11,"CCCC(NC(=O)C1C2CCCC2CN1C(=O)[C@@H](N1CCCCC1)C(C)(C)C)C(=O)C(=O)NC1CC1 (stereo partly drawn) [Compound 47, N-(1-(cyclopropylamino)-1,2-dioxohexan-3-yl)-2-((S)-3,3-dimethyl-2-(piperidin-1-yl)butanoyl)octahydrocyclopenta [c]pyrrole-1-carboxamide]",< 100
